This is an account of results in PubChem BioAssay (NCI).

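Values below derive from 48-hour exposures of cells grown in 96-well plates, with endpoints linearly interpolated between the two concentrations bracketing the appropriate inhibition level. GI50 is the concentration that inhibits growth by half. TGI denotes the concentration required for complete inhibition of growth.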 Where only a bound is given, the exact number is not on record here.

Assay in all cases: NCI tumour cell line growth inhibition, 48 h
Assay [1] has as its system MDA-N.
Assay [2] concerns RXF-631 renal.
For assay [3], the system named is DMS 273 small cell lung.
Assay [4] relates to KM20L2 colon.
The subject of assay [5] is M19-MEL melanoma.
Assay [6] concerns LXFL 529 NSCLC.
Assay [7] relates to SNB-78 CNS.
Assay [8] relates to XF 498 CNS.
The subject of assay [9] is DLD-1 colon.
Assay [10] concerns P388 leukemia.
In assay [11] the test system is SN12K1 renal.
The test system of assay [12] is P388/ADR leukemia.

With `CCCCCCCCCCCCCCCCOCC(O)CO` (centres undefined), the TGI in assay [1] was 60.6 µM.
Same read-out and setting: for `Cn1cc(NC(=O)Nc2cc(C(=O)Nc3cc(C(=O)Nc4cc(S(=O)(=O)O)c5cc(S(=O)(=O)O)cc(S(=O)(=O)O)c5c4)n(C)c3)n(C)c2)cc1C(=O)Nc1cc(C(=O)Nc2cc(S(=O)(=O)O)c3cc(S(=O)(=O)O)cc(S(=O)(=O)O)c3c2)n(C)c1` the value was more than 100 µM.
As to `O=c1[nH]cc(C(F)(C(F)(F)F)C(F)(F)F)c(=O)[nH]1`, the TGI in assay [2], in assay [3], in assay [4], in assay [5], in assay [6] and in [7] was more than 100 µM each time. Further, the TGI in assay [8] and in [9] was more than 100 µM each time.
For the compound `COc1ccc(C)cc1C1CCC(=O)O1` (centres undefined), the TGI in [3] is more than 100 µM; in assay [4], more than 100 µM; in [5], more than 100 µM; in assay [6], more than 100 µM; in assay [7] it was more than 100 µM; in [8] it was 99.2 µM. The TGI in [9] was more than 100 µM.
In the case of `COc1cc(C(C#N)NNc2nc(C)cc(=O)[nH]2)cc(OC)c1OC` (centres undefined), the TGI in assay [3], in [4], in assay [5], in assay [6], in assay [7] and in assay [9] was more than 100 µM throughout.
In assay [1], `NNC(=O)C(O)C(O)C(=O)NN` (centres undefined) returned a TGI of more than 100 µM.
Consider `CC(C)N1C(C)[C@@H](c2ccccc2)O[P@]1(=O)CC1=CCCCC1` (some centres undefined), for which the TGI in [4], in assay [5], in [6], in [8] and in [9] was more than 100 µM each time.
Consider `C/C(=N\NS(=O)(=O)c1ccc([N+](=O)[O-])cc1)c1ccc[n+]([O-])n1`, for which the TGI in [3] turned out to be 2.74 µM; in [4], 19.5 µM; in [5], 5.05 µM; in assay [6], 6.7 µM; in assay [7], 51.8 µM; in assay [8], 7.69 µM. The compound further returned a TGI in assay [9] of 20.3 µM.
As to `CCCCCCCCCCCCCCCCCC(=O)NCC(COP(=O)(O)O)OCC` (centres undefined), the TGI was 77.2 µM in assay [2]; more than 100 µM in assay [3]; more than 100 µM in assay [5]; more than 100 µM in [6]; 83.3 µM in assay [7]; more than 100 µM in assay [8]. Besides, in [9], the TGI is more than 100 µM.
For `COc1ccc(NC(=O)C2C(=O)N(c3ccc(OC)cc3)C(=O)/C2=N\NC(N)=O)cc1` (centres undefined), the TGI in assay [3], in [4], in assay [6] and in assay [7] was more than 100 µM each time.
With `c1ccc(-c2ccnc3c2ccc2c(-c4ccccc4)ccnc23)cc1`, the TGI in [2] amounted to 6.19 µM; in [3], 9.5 µM; in assay [4], 16.5 µM; in assay [5] it was 5.14 µM; in assay [6] it was 11.5 µM; in assay [7], 18 µM. This compound also gave a TGI in [9] of 15.3 µM.
For `Cc1noc(/N=C2\C=C(Nc3onc(C)c3C)C(=O)c3ccccc32)c1C`, the TGI in [2] was more than 100 µM; in assay [3], more than 100 µM; in [4], more than 100 µM; in assay [5], 17.1 µM; in assay [6], more than 100 µM; in assay [7], more than 100 µM. For the same compound, the TGI in [8] and in [9] was more than 100 µM throughout.
Regarding `COC(=O)C(C(=O)C(N)=O)c1csc(-n2nc(-c3ccccc3)cc2-c2ccccc2)n1` (centres undefined), the TGI in assay [3], in assay [4], in assay [5], in assay [6], in assay [7] and in assay [8] was more than 31.6 µM in each case. The same compound showed a TGI in assay [9] of more than 31.6 µM.
In the case of `O=S(=O)(O)SCCNCCCCCC1CCCCC1`, the TGI in assay [1] was 26.1 µM.
In turn, `O=C(O)CCc1nc(-c2ccccc2-n2cccc2)no1` returned a TGI in assay [1] of more than 100 µM.
On to `CC(/C=N/N=C(N)N)=N\N=C(N)N`, for which the TGI in [3] amounted to 650 µM; in assay [4] it was 411 µM; in assay [1], 354 µM; in [10] it was 39.8 µM; in assay [7], 147 µM; in [11], 30.1 µM. For the same compound, the TGI stood at 12 µM in assay [8], 2500 µM in assay [9] and 352 µM in [12]. The GI50 is 47.6 µM in assay [4] and 26.8 µM in [1].
The compound `CC(N1CCOCC1)C(O)(c1ccccc1)c1ccccn1` (centres undefined) displayed a TGI in assay [1] of more than 100 µM.
Regarding `S=c1c2ccccc2c(=S)n2n1CC=CC2`, the TGI in assay [2], in assay [3], in [4], in assay [5], in assay [6] and in assay [7] was more than 100 µM throughout. In addition, in assay [9], the TGI is more than 100 µM.
With `c1ccc(-c2nnc3nn4c(-c5ccccc5)cnnc4c3c2-c2ccccc2)cc1`, the TGI in assay [2] was 66.7 µM; in assay [3], more than 100 µM; in assay [4] it was more than 100 µM; in [5] it was more than 100 µM; in assay [6], more than 100 µM; in assay [7] it was more than 100 µM. For the same compound, the TGI was 57.1 µM in assay [8] and more than 100 µM in [9].
With `COc1ccc2c([nH]c3c(O)c(-c4c(C)cc5c([nH]c6c(CC=C(C)C)c(OC)ccc65)c4O)c(C)cc32)c1CC=C(C)C`, the TGI in assay [3], in assay [4], in assay [5], in assay [6], in assay [7] and in [9] was more than 100 µM throughout.
